Measured values as given in ChEMBL document CHEMBL1201862, “PubChem BioAssay data set” (2004).
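Method: 48-hour compound exposure of cells in 96-well plates, five concentrations, linear interpolation of endpoints. GI50 = concentration required for 50% inhibition of growth.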 Calls of active or inactive are those of the source. No stated cut-off is given here; in the data, active = GI50 up to about 1.1 µM and inactive = higher.

Tests used:
Experiment in all cases: NCI anticancer screen, dose series, 48 h
786-0 = system: 786-0
NCI-H522 = system: NCI-H522
UO-31 = system: UO-31
COLO 205 = system: COLO 205
DU-145 = system: DU-145
NCI/ADR-RES = system: NCI/ADR-RES
UACC-257 = system: UACC-257
HOP-62 = system: HOP-62
MDA-MB-231 = system: MDA-MB-231
SR = system: SR
U-251 = system: U-251
M14 = system: M14
UACC-62 = system: UACC-62
SK-MEL-2 = system: SK-MEL-2
TK-10 = system: TK-10
LOX IMVI = system: LOX IMVI
ACHN = system: ACHN
HL-60 = system: HL-60
CCRF-CEM = system: CCRF-CEM
SK-OV-3 = system: SK-OV-3

Measured: GI50

COC(=O)CCCC(=O)O
inactive: 786-0 > 100 µM | NCI-H522 > 100 µM | UO-31 > 100 µM | COLO 205 > 100 µM | DU-145 > 100 µM | NCI/ADR-RES > 100 µM | UACC-257 > 100 µM | HOP-62 > 100 µM | MDA-MB-231 > 100 µM | SR > 100 µM | U-251 > 100 µM | M14 > 100 µM | UACC-62 > 100 µM | SK-MEL-2 > 100 µM | TK-10 > 100 µM | LOX IMVI > 100 µM | ACHN > 100 µM

CC(C)c1c(P(=O)(c2ccccc2)c2ccccc2)n(C)c2ccccc12
inactive: 786-0 > 100 µM | NCI-H522 23.4 µM | UO-31 31.8 µM | COLO 205 32.4 µM | DU-145 80.2 µM | NCI/ADR-RES 43.1 µM | UACC-257 90.6 µM | HOP-62 > 100 µM | MDA-MB-231 > 100 µM | SR 49.9 µM | U-251 97.3 µM | M14 64.4 µM | SK-MEL-2 88.3 µM | HL-60 28.1 µM | TK-10 > 100 µM | LOX IMVI > 100 µM | CCRF-CEM 59 µM | ACHN 35.2 µM

O=C(O)C(O)(c1ccc(-c2ccccc2)cc1)c1ccc(-c2ccccc2)cc1
inactive: 786-0 24.5 µM | NCI-H522 18.9 µM | UO-31 42 µM | DU-145 16.6 µM | NCI/ADR-RES 24.5 µM | UACC-257 36.1 µM | HOP-62 20.1 µM | MDA-MB-231 28.3 µM | SR 47.5 µM | U-251 17.1 µM | M14 35 µM | UACC-62 18.1 µM | SK-MEL-2 14.1 µM | HL-60 21.5 µM | TK-10 37.6 µM | LOX IMVI 17.9 µM | ACHN 32.1 µM

OC(CN1CCCCC1)c1ccc(/C=C/c2ccc(Cl)cc2)cc1 (stereo unspecified)
inactive: 786-0 56.5 µM | NCI-H522 21.3 µM | SK-OV-3 > 100 µM | UO-31 50.4 µM | COLO 205 16.7 µM | DU-145 > 100 µM | NCI/ADR-RES > 100 µM | UACC-257 21.6 µM | HOP-62 94.8 µM | MDA-MB-231 > 100 µM | SR > 100 µM | U-251 > 100 µM | M14 19.9 µM | UACC-62 24.3 µM | SK-MEL-2 27.2 µM | HL-60 6.14 µM | TK-10 > 100 µM | CCRF-CEM 70.5 µM | ACHN > 100 µM

COC1OC(C)/C(=N/O)C2OC(C)(C)OC12 (stereo unspecified)
inactive: 786-0 > 100 µM | NCI-H522 > 100 µM | SK-OV-3 > 100 µM | UO-31 > 100 µM | COLO 205 > 100 µM | DU-145 > 100 µM | NCI/ADR-RES > 100 µM | UACC-257 > 100 µM | HOP-62 > 100 µM | MDA-MB-231 > 100 µM | SR > 100 µM | U-251 > 100 µM | M14 > 100 µM | UACC-62 > 100 µM | HL-60 > 100 µM | TK-10 > 100 µM | LOX IMVI > 100 µM | CCRF-CEM > 100 µM | ACHN > 100 µM

O=c1cc(NNc2ccc(F)cc2)[nH]c(=O)[nH]1
inactive: 786-0 12.5 µM | SK-OV-3 39.1 µM | UO-31 17.9 µM | COLO 205 16.5 µM | DU-145 > 100 µM | NCI/ADR-RES 28.2 µM | UACC-257 > 100 µM | HOP-62 17.1 µM | MDA-MB-231 17.1 µM | SR 35.1 µM | U-251 25.6 µM | M14 8.85 µM | UACC-62 15.1 µM | SK-MEL-2 21.4 µM | HL-60 6.65 µM | TK-10 22 µM | LOX IMVI > 100 µM | CCRF-CEM 12.9 µM | ACHN 17.9 µM

O=C(Nc1ccccc1)c1cc2ccccc2c(/N=N\c2cccc([N+](=O)[O-])c2)c1O
inactive: 786-0 31.3 µM | NCI-H522 5.56 µM | SK-OV-3 30.3 µM | UO-31 > 100 µM | COLO 205 > 100 µM | DU-145 > 100 µM | NCI/ADR-RES > 100 µM | UACC-257 > 100 µM | HOP-62 41.1 µM | MDA-MB-231 56.8 µM | SR 38.2 µM | U-251 24.6 µM | M14 > 100 µM | UACC-62 > 100 µM | SK-MEL-2 > 100 µM | TK-10 > 100 µM | CCRF-CEM > 100 µM | ACHN 31 µM

COC(=O)C1(CCC(C)=O)CCCCCC1=O (stereo unspecified)
inactive: 786-0 > 100 µM | NCI-H522 > 100 µM | SK-OV-3 > 100 µM | UO-31 > 100 µM | COLO 205 > 100 µM | DU-145 > 100 µM | NCI/ADR-RES > 100 µM | UACC-257 > 100 µM | HOP-62 > 100 µM | MDA-MB-231 > 100 µM | SR > 100 µM | U-251 > 100 µM | M14 > 100 µM | UACC-62 > 100 µM | SK-MEL-2 > 100 µM | TK-10 > 100 µM | LOX IMVI > 100 µM | ACHN > 100 µM

O=C1C=Cc2c1csc2Br
inactive: 786-0 25.8 µM | NCI-H522 18.7 µM | SK-OV-3 > 100 µM | UO-31 24.2 µM | COLO 205 64.7 µM | DU-145 > 100 µM | NCI/ADR-RES 33.8 µM | UACC-257 67.3 µM | HOP-62 > 100 µM | MDA-MB-231 91.8 µM | SR 10.6 µM | U-251 51.2 µM | M14 19.1 µM | UACC-62 35.3 µM | SK-MEL-2 > 100 µM | TK-10 65 µM | LOX IMVI 25.5 µM | CCRF-CEM 16.9 µM | ACHN 30.7 µM

Nc1nc(SCCc2ccccc2)c2nc[nH]c2n1
inactive: 786-0 78.2 µM | NCI-H522 66.2 µM | UO-31 60.7 µM | DU-145 36.2 µM | NCI/ADR-RES 51.2 µM | UACC-257 23.7 µM | HOP-62 50.5 µM | MDA-MB-231 51.1 µM | SR 36.2 µM | U-251 58.5 µM | M14 71.3 µM | UACC-62 47.5 µM | SK-MEL-2 30.7 µM | TK-10 19.6 µM | LOX IMVI 41.8 µM | CCRF-CEM 31.2 µM | ACHN 35.7 µM

COc1ccc2c(c1)CCc1c-2n(CCN2CCOCC2)c2ccc(OC)cc12
inactive: 786-0 82.8 µM | NCI-H522 > 100 µM | SK-OV-3 > 100 µM | UO-31 > 100 µM | COLO 205 32.8 µM | DU-145 > 100 µM | NCI/ADR-RES > 100 µM | UACC-257 > 100 µM | HOP-62 > 100 µM | MDA-MB-231 > 100 µM | SR 10.5 µM | U-251 > 100 µM | M14 28 µM | UACC-62 > 100 µM | SK-MEL-2 > 100 µM | TK-10 > 100 µM | CCRF-CEM 16.4 µM | ACHN 82.2 µM

Cc1ccc(S(=O)(=O)N2CCNCCN(S(=O)(=O)c3ccc(C)cc3)CCNCC2)cc1
inactive: 786-0 18.7 µM | NCI-H522 16.6 µM | SK-OV-3 20.4 µM | UO-31 19.8 µM | COLO 205 16.4 µM | DU-145 19.5 µM | NCI/ADR-RES 61.1 µM | UACC-257 16.4 µM | HOP-62 16.6 µM | MDA-MB-231 23.7 µM | SR 16.4 µM | U-251 20.2 µM | M14 18.1 µM | UACC-62 18.8 µM | SK-MEL-2 19.8 µM | HL-60 10.2 µM | TK-10 18.3 µM | LOX IMVI 12.5 µM | ACHN 28.9 µM

CCOC(=O)c1c(SC(=O)c2ccc(OC)cc2)n(-c2ccccc2)c(=S)n(-c2ccccc2)c1=O
inactive: 786-0 37.8 µM | NCI-H522 49.4 µM | SK-OV-3 > 100 µM | COLO 205 89.1 µM | DU-145 > 100 µM | NCI/ADR-RES > 100 µM | UACC-257 > 100 µM | HOP-62 > 100 µM | MDA-MB-231 24 µM | SR 29.9 µM | U-251 33.6 µM | M14 29.7 µM | UACC-62 > 100 µM | HL-60 40.3 µM | TK-10 > 100 µM | LOX IMVI 36.3 µM | CCRF-CEM 35.6 µM | ACHN > 100 µM

OCCN(CCO)c1nc(N2CCCCC2)c2nc(N(CCO)CCO)nc(N3CCCCC3)c2n1 [DIPYRIDAMOLE]
inactive: 786-0 31.9 µM | NCI-H522 17.9 µM | UO-31 33 µM | COLO 205 41.9 µM | DU-145 48.8 µM | NCI/ADR-RES 22 µM | UACC-257 39.3 µM | HOP-62 29 µM | MDA-MB-231 43.3 µM | SR 3.46 µM | M14 55.8 µM | SK-MEL-2 34.6 µM | HL-60 15.7 µM | TK-10 17.1 µM | LOX IMVI 37 µM | CCRF-CEM 20 µM | ACHN 33.9 µM

COc1ccc2[nH]c3cc4c(=O)c5cc(OC)ccc5[nH]c4cc3c(=O)c2c1
inactive: 786-0 99.1 µM | NCI-H522 > 100 µM | SK-OV-3 > 100 µM | UO-31 97.5 µM | COLO 205 > 100 µM | DU-145 > 100 µM | NCI/ADR-RES > 100 µM | UACC-257 > 100 µM | HOP-62 69.5 µM | MDA-MB-231 > 100 µM | SR > 100 µM | U-251 > 100 µM | M14 > 100 µM | UACC-62 > 100 µM | SK-MEL-2 > 100 µM | HL-60 10.8 µM | TK-10 > 100 µM | ACHN > 100 µM
